In article PMC7261837, “Circumdatin D Exerts Neuroprotective Effects by Attenuating LPS-Induced Pro-Inflammatory Responses and Downregulating Acetylcholinesterase Activity In Vitro and In Vivo” (Frontiers in Pharmacology, 2020):

Key:
BV-2 cells [1] = assay: LPS-induced NO production in BV-2 cells (Griess method); format: cell-based, murine; conditions: 1 μg/ml LPS, 24 h
Method: BV-2 cells (murine microglia cell line) was obtained from Peking Union Medical College, Cell Bank (Beijing, China) and maintained in DMEM containing 10% FBS. Cells were grown in a humidified atmosphere of 5% CO2 incubator at 37°C.
BV2 cells were seeded and incubated overnight, and followed by treatment with different doses of circumdatins for indicated period with or without LPS (1 μg/ml) stimulation. The cells without circumdatins and LPS treatment were used as the control group.
The NO levels in culture media was determined using a Griess method. Cells were treated with different concentrations of circumdatins in the presence or absence of LPS for 24 h. After that, the supernatant fraction of the culture media was collected and mixed with the same volume of Griess reagent (1% sulfanilamide/0.1% naphthyl ethylene diamine dihydrochloride/2% H3PO4). Then, the absorbance was measured at 540 nm using a microplate spectrophotometer (Thermo Scientifics, USA). The concentration of nitrite was calculated from a calibration curve obtained from standards sodium nitrite solutions.

BV-2 cells [2] = assay: MTT cytotoxicity / cell survivability in BV-2 cells; format: cell-based, murine; conditions: 1 μg/ml LPS, doses 0–100 μM, 48 h
Method: In vitro cytotoxicity was detected using the MTT assay. Cells were treated with different concentrations of circumdatins in the presence or absence of LPS for 48 h. Then, MTT reagent was added to each well and the plates were further incubated at 37°C for 4 h. The absorbance was read at 570 nm using a microplate spectrophotometer (Thermo Scientifics, USA).
Cell surviability was detected using the MTT assay. Cells were seeded in 96-well plates and incubated overnight, following which the cells were treated with different concentrations of circumdatins with or without 1µg/mL of LPS for indicated time. Then, the cells were subsequently cultured with MTT and incubated for 4 hours at 37°C. Thereafter, the purple formazan dye was dissolved in DMSO and the absorbance was measured at 570 nm.

BV-2 cells [3] = assay: ELISA for TNF-α and IL-1β in LPS-induced BV-2 cells; format: cell-based, murine; conditions: 1 μg/ml LPS, 10, 20, 50 μM, 6 h TNF-α, 8 h IL-1β
Method: Cells were treated with different concentrations of circumdatin D in the presence or absence of LPS for indicated time. Then, the culture media were collected and centrifuged at 12,000g, 4°C for 20 min. The levels of TNF-α and IL-β in the supernatants were determined by ELISA kits according to the manufacturer's instructions.

BV-2 cells [4] = assay: RT-PCR of TNF-α, IL-1β, iNOS and COX-2 mRNA in LPS-induced BV-2 cells; format: cell-based, murine; conditions: 1 μg/ml LPS, 10, 20, 50 μM, 24 h
Method: Total RNA was extracted using TRIzol reagent (Life Technologies, NY) and then reverse-transcribed into cDNA by reverse transcriptase (Invitrogen). mRNA expression of target genes iNOS, COX-2, IL-1β and TNF-α was quantified in comparison to housekeeping gene GAPDH using SYBR green detection method on ABI 7500 system (Applied Biosystems). The relative gene expression was calculated using comparative Ct (ΔΔCt) method. The following primers in Table 1 were used in this study.

BV-2 cells [5] = assay: Western blot of iNOS and COX-2 in LPS-induced BV-2 cells; format: cell-based, murine; conditions: 1 μg/ml LPS, 10, 20, 50 μM, 24 h
Method: (§1) Total cell proteins were lysed using cell extraction buffer containing phenylmethylsulfonyl ﬂuoride and protease inhibitor cocktail. The cytosolic and nuclear extracts were collected using the Nuclear and Cytosolic extraction kit. The protein extracts were separated on SDS-PAGE and transferred to PVDF membranes (Millipore). The membrane was blocked with 5% nonfat milk for 1 h at room temperature, and incubated with indicated primary antibodies overnight at 4°C. After washing, the membrane was incubated with secondary antibodies conjugated to horseradish peroxidase (Proteintech, USA) at room temperature for 1 h. Then, the proteins of interest were visualized utilizing a chemiluminescence (ECL) detection system. The relative optical densities were analyzed using the Image Master™ 2D Elite software.

C. elegans CL4176 [6] = assay: Nematode toxicity assay; format: in vivo, Caenorhabditis elegans; conditions: 24 and 48 h, tested dose, Figure S19
Method: To eliminate the confounding factor of toxicity in the procedure, CL4176 worms were exposed to increasing concentrations of circumdatin D dissolved in NGM (0, 100, 200, 500 µM) for 24 h and 48h at 16 °C, respectively. Further, nematodes were exposed to 0.4% DMSO as the negative control. The animals were scored as live or death using a Motic dissecting microscope (Motic Inc., LTD., Hong Kong, China). The worms were considered as death if there was no response when gently touched with a platinum wire. Each independent assay included three NGM plates with thirty worms in each one. Toxicity was expressed as a total percentage of worm survival.

C. elegans CL4176 [7] = assay: qRT-PCR of ace-1, ace-2, F22E5.6 and ZC239.12 in CL4176; format: in vivo, Caenorhabditis elegans; conditions: CL4176, 36 h post temperature up-shift
From the text: Related gene expression levels were detected as [Xin et al. (2013)] described. After treatment, CL4176 worms were collected and total RNA was extracted using TRIzol method. The cDNA was synthesized using cDNA synthesis kit (Invitrogen) according to manual instructions. The mRNA expression of target genes viz. F22E5.6, ZC239.12, ace-1 and ace-2 was quantified in comparison to housekeeping gene F23B2.13 using SYBR green detection method on ABI 7500 system (Applied Biosystems). The relative gene expression was calculated using comparative Ct (ΔΔCt) method. The following primers in Table 2 were used in this study.

NF-κB signaling pathway = assay: NF-κB p65 translocation and IKK/IκB phosphorylation in LPS-induced BV-2 cells; format: cell-based, murine; conditions: 1 μg/ml LPS, 10, 20, 50 μM, 3 h
Method: (§2) BV2 cells were seeded on glass coverslips and treated with circumdatin D in the presence or absence of LPS for indicated time. After that, the cells were washed twice with PBS and fixed with cold 4% paraformaldehyde for 30 min. Then, the cells were permeabilized with 0.1% Triton X-100 for 10 min and blocked with 5% bovine serum albumin for 1 h. After incubation with primary antibodies overnight at 4°C, the cells were incubated with Alexa Fluor 488-conjugated secondary antibodies (Proteintech, USA) for 1 h at room temperature. Furthermore, Hochest 33342 was added to stain cell nuclei. Images were acquired and analyzed using a confocal microscope (Leica, Germany).
as §1

ERK1/2-JNK1/2-p38 MAPKs = assay: MAPK phosphorylation in LPS-induced BV-2 cells (Western blot); format: cell-based, murine; conditions: 1 μg/ml LPS, 10, 20, 50 μM, 3 h
Method: as §1

[8] = tested on: JaK2/STAT3 signaling pathway; assay: JaK2/STAT3 phosphorylation and STAT3 translocation in LPS-induced BV-2 cells; format: cell-based, murine; conditions: 1 μg/ml LPS, 10, 20, 50 μM, 3 h
Method: as §2
as §1, with “Then, the proteins of interest were visualized utilizing a chemiluminescence (ECL) detection system.” left out

COc1ccc2c(c1)C(=O)N1CCC[C@H]1c1nc3ccc(OC)cc3c(=O)n1-2 [circumdatin D]
LPS-induced NO production (BV-2 cells [1]): significant reduction of NO levels
cytotoxicity in the presence of LPS (MTT) (BV-2 cells [2]): did not induce significant cellular death
LPS-induced TNF-α and IL-1β production (ELISA) (BV-2 cells [3]): suppressed LPS-induced TNF-α and IL-1β production
iNOS and COX-2 mRNA expression levels (q-PCR) (BV-2 cells [4]): dose-dependently decreasing the expression levels of both iNOS and COX-2
proinflammatory cytokines mRNA levels (BV-2 cells [4]): significantly decreased proinflammatory cytokines
iNOS and COX-2 protein expression (BV-2 cells [5]): reduced LPS-induced COX-2 and iNOS expression dose-dependently
toxicity on CL4176 nematodes (survival) (C. elegans CL4176 [6]): no toxicity on the normal survival of the nematode
AChE genes (ace-1, ace-2) and inflammation related genes (F22E5.6, ZC239.12) expression (C. elegans CL4176 [7]): inhibited temperature raise-induced AChE and inflammation-associated gene expressions
NF-κB nuclear translocation (immunofluorescence) (NF-κB signaling pathway): inhibited LPS-induced NF-κB nuclear translocation
nuclear NF-κB p65 levels (Western blot) (NF-κB signaling pathway): reduced nuclear NF-κB p65 levels significantly
phosphorylation levels of IKK and IκB (NF-κB signaling pathway): down-regulated the phosphorylation levels of IKK and IκB
MAPK (ERK1/2, JNK1/2, p38) phosphorylation (ERK1/2-JNK1/2-p38 MAPKs): markedly suppressed the phosphorylation
LPS-induced phosphorylation of JaK2 [8]: strongly reduced LPS-induced phosphorylation of JaK2
phosphorylation and nuclear translocation of STAT3 [8]: effectively inhibited the phosphorylation and translocation of STAT3
